Reference: US20220193076A1, “METHODS OF TREATING BREAST CANCER WITH TUCATINIB” (Seagen Inc., priority 2019, published 2022)

Legend:
[1] = biological target: T1, CYP3A4 (Homo sapiens, UniProt P08684); test: In vitro time-dependent inhibition of CYP3A4 (background statement); type: in vitro ADME
[2] = biological target: T1, CYP3A4; test: Example 2 Part A: effect of strong CYP3A4 inhibitor itraconazole on PK of tucatinib; type: in vivo; set-up: endogenous in cells; host or cells: healthy human subjects, in vivo; conditions: tucatinib 300 mg single dose in combination with itraconazole vs tucatinib alone
Procedure: A primary objective of the study is to assess the effect of a strong CYP3A4 inhibitor (itraconazole) on the single-dose PK of tucatinib. […] They were discharged on Day 8 after completion of the in-patient assessments. […] On Day 3, each subject received oral doses of 200 mg of itraconazole, twice daily (BID). From Day 4 to Day 7, each subject received single oral doses of 200 mg of itraconazole once daily (QD). Itraconazole was administered in the fed state (within 5 minutes after completion of meals). On Day 6, each subject received a single oral dose of 300 mg of tucatinib at about 2 hours after the completion of breakfast and after itraconazole in the morning. […] Other noncompartmental PK parameters may be reported. Additionally, blood samples were collected for determination of trough levels of itraconazole prior to morning dosing on the days indicated in FIG. 5.

[3] = biological target: T2, MATE1 (Homo sapiens, UniProt Q96FL8); test: In vitro inhibition of MATE1 transporter; type: in vitro ADME
T2 sequence (Q96FL8 1-570): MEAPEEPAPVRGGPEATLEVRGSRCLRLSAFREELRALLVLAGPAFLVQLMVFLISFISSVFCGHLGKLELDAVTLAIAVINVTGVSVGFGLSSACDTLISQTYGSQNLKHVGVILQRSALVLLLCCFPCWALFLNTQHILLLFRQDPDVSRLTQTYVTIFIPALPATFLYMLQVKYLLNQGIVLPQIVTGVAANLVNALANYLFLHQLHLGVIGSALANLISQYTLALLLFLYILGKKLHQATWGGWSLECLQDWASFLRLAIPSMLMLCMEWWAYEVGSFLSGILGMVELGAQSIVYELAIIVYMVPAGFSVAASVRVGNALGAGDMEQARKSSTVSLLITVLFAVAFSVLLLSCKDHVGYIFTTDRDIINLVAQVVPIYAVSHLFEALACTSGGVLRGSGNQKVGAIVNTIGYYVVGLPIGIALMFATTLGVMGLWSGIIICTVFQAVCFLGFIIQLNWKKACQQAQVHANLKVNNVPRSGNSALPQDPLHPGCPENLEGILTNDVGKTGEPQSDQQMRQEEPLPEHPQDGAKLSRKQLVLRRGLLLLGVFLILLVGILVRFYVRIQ

[4] = biological target: T3, CYP2C8 (Homo sapiens, UniProt P10632); test: Example 2 Part D: effect of tucatinib on PK of substrate probe repaglinide; type: in vivo; set-up: endogenous in cells; host or cells: healthy human subjects, in vivo; conditions: steady-state tucatinib 300 mg BID, probe repaglinide
T3 sequence (P10632 1-490): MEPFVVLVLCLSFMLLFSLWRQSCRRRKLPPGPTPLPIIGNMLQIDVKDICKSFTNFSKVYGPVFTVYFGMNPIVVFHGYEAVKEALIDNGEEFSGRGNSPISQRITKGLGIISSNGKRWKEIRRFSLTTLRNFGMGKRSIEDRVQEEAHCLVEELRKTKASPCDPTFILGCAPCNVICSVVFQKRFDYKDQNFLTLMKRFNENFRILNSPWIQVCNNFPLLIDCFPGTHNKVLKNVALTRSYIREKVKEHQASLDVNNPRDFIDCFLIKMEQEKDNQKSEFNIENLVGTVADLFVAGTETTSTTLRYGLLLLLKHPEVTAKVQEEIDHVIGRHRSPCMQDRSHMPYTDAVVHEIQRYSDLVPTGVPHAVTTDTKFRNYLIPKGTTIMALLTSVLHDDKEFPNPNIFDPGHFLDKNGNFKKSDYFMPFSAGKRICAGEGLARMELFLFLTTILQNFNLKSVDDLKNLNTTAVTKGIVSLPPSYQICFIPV
Procedure: A Phase 1, open-label, fixed-sequence, 5-part, drug-drug interaction study of tucatinib was conducted to evaluate the effects of CYP3A4 and CYP2C8 inhibition and induction on the pharmacokinetics of tucatinib and to evaluate the effects of tucatinib on the pharmacokinetics of substrates of CYP3A4, CYP2C8, CYP2C9, and P-glycoprotein in healthy male and female subjects.
Part B evaluates the effect of rifampin, a strong inducer of CYP3A4 and CYP2C8, on the PK of tucatinib. […] Part E evaluates the effect of tucatinib on the PK of a substrate probe of the transporter P-gp (digoxin). […] For Parts A, B, and C, tucatinib is given as a single oral dose because evaluating plasma exposures after a single dose of tucatinib is expected to provide an appropriate assessment of the impact of the probe drugs on tucatinib PK. In Parts D and E, tucatinib is given as a multiple-dosing regimen in order to examine its effects on probe drugs at steady state, at which maximal inhibition of CYP2C8, CYP2C9, CYP3A4, and P-gp by tucatinib should be achieved.
Secondary objectives of the study included: (1) assessing the safety and tolerability of tucatinib when administered alone and when co-administered with substrate probes of CYP2C8, CYP2C9, and CYP3A4; and (2) assessing the single-dose PK of tucatinib and assessing the multiple-dose, steady-state PK of tucatinib alone and in the presence of substrate probes of CYP2C8, CYP2C9, and CYP3A4 in healthy subjects.
They were discharged on Day 14 after completion of the in-patient assessments.
On Day 1, each subject received a single oral dose of 0.5 mg of repaglinide. […] From Day 4 to Day 13, each subject received oral doses of 300 mg of tucatinib, twice daily (BID). On Day 11, each subject received a single oral dose of repaglinide. […] Tucatinib was provided as 150-mg tablets (2 tablets for the 300-mg dose), repaglinide was provided as 0.5-mg tablets, olbutamide was provided as 500-mg tablets, and midazolam was provided as a syrup (2 mg/mL; 1 mL syrup for the 2-mg dose). Tucatinib, repaglinide, olbutamide and midazolam were administered before meals preceded by an at least 8-hour overnight fast.
Other noncompartmental PK parameters may be reported. Additionally, blood samples for determination of plasma concentrations of tucatinib and ONT-993 were collected at the time points indicated in FIG. 8. […] A single genotyping blood sample was collected to assess possible effect of CYP polymorphisms or other genetic polymorphisms on the magnitude of drug interactions of tucatinib with probe drugs and substrates.

[5] = Clinical plasma concentration of tucatinib; type: in vivo; conditions: human, read-out: Mean clinical maximum observed concentration (Cmax)
[6] = Predicted hepatic metabolic stability across species; type: in vitro ADME

T1 sequence (P08684 whole entry): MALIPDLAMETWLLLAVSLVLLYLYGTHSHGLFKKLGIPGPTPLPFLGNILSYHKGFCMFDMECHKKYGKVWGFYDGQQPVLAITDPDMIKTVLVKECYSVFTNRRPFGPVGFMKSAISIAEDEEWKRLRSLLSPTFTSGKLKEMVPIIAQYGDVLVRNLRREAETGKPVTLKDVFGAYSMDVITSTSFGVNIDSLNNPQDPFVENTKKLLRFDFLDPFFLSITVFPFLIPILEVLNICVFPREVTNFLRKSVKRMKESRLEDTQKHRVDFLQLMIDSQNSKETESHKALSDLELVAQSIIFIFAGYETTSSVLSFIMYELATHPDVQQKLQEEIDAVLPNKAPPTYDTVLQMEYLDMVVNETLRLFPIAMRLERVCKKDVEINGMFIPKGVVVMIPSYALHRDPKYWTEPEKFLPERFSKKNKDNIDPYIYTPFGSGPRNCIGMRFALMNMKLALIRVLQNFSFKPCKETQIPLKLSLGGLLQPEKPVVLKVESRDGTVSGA

Cc1cc(Nc2ncnc3ccc(NC4=NC(C)(C)CO4)cc23)ccc1Oc1ccn2ncnc2c1 [tucatinib]
Time-dependent inhibition of CYP3A4 [1]: no time-dependent inhibition | Geometric LS mean ratio (90% CI), AUC0-∞ [2]: 1.34 (1.26, 1.43) | Geometric LS mean ratio (90% CI), AUClast [2]: 1.33 (1.25, 1.41) | Geometric LS mean ratio (90% CI), Cmax [2]: 1.32 (1.23, 1.42) | IC50 [3]: 340 nM | Inhibition of CYP2C8 in vivo [4]: weak inhibitor | Cmax [5]: 1000 to 2000 nM | Stability with respect to hepatic metabolism [6]: good-to-moderate stability
